Data published in patent US8853264B2, “Use of lignan compounds for treating or preventing inflammatory disease” (Newtree Industry Co., Ltd., priority 2005, dated 2014).

System: edemas of the rat ears induced by TPA
Assay: TPA-induced rat ear edema inhibition test
Type: in vivo, Wistar rats
Details: for Edema thickness: topical in acetone 30 min after TPA, measured after 8 hours
Procedure: The anti-inflammatory activity of the lignan compound isolated and purified in <Example 1> was tested in animal models. The anti-inflammatory activity was measured by edema inhibition test on rats. As the test animals, 5-week-old Wistar rats (DaeHan Biolink Co., Ltd, Korea) were used. The animals were provided with standard pellet forming rat feed (Cheiljedang Corporation, Korea) and given freely to feed and water. Also, the animals were housed in conditions of 12-hr light/12-hr dark cycle, temperature of 25±2° C. and humidity of 60±10%. Inflammation inducing agent TPA (12-O-tetradecanoylphorbol-13-acetate; Sigma) was dissolved in acetone to a concentration of 200 μg/mL. The edemas of the rat ears were induced by applying the TPA solution locally to each of the outer and inner faces of the ear in an amount of 10 μl/ear (4 μg/ear). The macelignan purified in <Example 1> and non-steroidal anti-inflammatory drug indomethacin as a control substance were dissolved in acetone and used in amounts of 20, 200 and 2000 μg/ear. Each of the macelignan and the indomethacin was applied locally to the rat ears at 30 minutes after treatment with TPA. A control group was locally applied with acetone. The thickness of the rat ears was measured with a caliper 8 hours after treatment with each of the substances. An increase in the ear thickness in the group treated with the sample was compared to that of the group untreated with the sample, and inflammation inhibitory effect was measured by calculating percent edema inhibition.

**Q.** COc1ccc2c(c1)c(CC(=O)O)c(C)n2C(=O)c1ccc(Cl)cc1 [indomethacin, reference compound] was tested. Which Edema inhibition (dose 20 μg/ear) did it give?
**A.** 25.0%

**Q.** What about the Edema thickness (dose 20 μg/ear) of the same compound?
**A.** 185 ± 5 μm

**Q.** And the Edema inhibition (dose 200 μg/ear)?
**A.** 56.5%

**Q.** What about the Edema thickness (dose 200 μg/ear) of the same compound?
**A.** 108 ± 8 μm

**Q.** What about the Edema inhibition (dose 2000 μg/ear) of the same compound?
**A.** 74.2%

**Q.** And the Edema thickness (dose 2000 μg/ear)?
**A.** 64 ± 7 μm
